Source: patent US10259810B2, “N-sulfonylated pyrazolo[3,4-b]pyridin-6-carboxamides and method of use” (AbbVie S.à.r.l., priority 2015, dated 2019)

What was measured:
[1] = biological target: T1, ΔF508-CFTR (Homo sapiens, UniProt P13569, DEL508-508); test: CFTR cell surface levels using HRP-tagged ΔF508-CFTR expressing CFBE cells, intrinsic corrector capacity; format: cell-based; design: % Activation: concentration or dose not given beside the values; settings: HRP-tagged ΔF508-CFTR expressing CFBE41o- cells, compound alone (intrinsic corrector capacity), 20 hours at 33° C.; for EC50: read-out: EC50
T1 construct: host or cells: CFBE41o-, doxycycline-inducible
Summary of the method: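 Read-out: chemiluminescent HRP activity of ECL4-HRP-tagged ΔF508-CFTR at the cell surface, 15 min substrate in dark. Normalized as 100×(sample−DMSO)/(positive control−DMSO).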

[2] = biological target: T1, ΔF508-CFTR; test: CFTR cell surface levels using HRP-tagged ΔF508-CFTR expressing CFBE cells, in the presence of a co-corrector; format: cell-based; settings: HRP-tagged ΔF508-CFTR CFBE cells, in the presence of 3 μM co-corrector; for EC50: read-out: EC50
Summary of the method: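 Chemiluminescent read-out of surface HRP (15 min, dark) after PBS washes. Activity is normalized as 100×(sample−DMSO)/(3 μM co-corrector alone−DMSO).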

T1 sequence (P13569 with tags, fused parts or gaps DEL508-508): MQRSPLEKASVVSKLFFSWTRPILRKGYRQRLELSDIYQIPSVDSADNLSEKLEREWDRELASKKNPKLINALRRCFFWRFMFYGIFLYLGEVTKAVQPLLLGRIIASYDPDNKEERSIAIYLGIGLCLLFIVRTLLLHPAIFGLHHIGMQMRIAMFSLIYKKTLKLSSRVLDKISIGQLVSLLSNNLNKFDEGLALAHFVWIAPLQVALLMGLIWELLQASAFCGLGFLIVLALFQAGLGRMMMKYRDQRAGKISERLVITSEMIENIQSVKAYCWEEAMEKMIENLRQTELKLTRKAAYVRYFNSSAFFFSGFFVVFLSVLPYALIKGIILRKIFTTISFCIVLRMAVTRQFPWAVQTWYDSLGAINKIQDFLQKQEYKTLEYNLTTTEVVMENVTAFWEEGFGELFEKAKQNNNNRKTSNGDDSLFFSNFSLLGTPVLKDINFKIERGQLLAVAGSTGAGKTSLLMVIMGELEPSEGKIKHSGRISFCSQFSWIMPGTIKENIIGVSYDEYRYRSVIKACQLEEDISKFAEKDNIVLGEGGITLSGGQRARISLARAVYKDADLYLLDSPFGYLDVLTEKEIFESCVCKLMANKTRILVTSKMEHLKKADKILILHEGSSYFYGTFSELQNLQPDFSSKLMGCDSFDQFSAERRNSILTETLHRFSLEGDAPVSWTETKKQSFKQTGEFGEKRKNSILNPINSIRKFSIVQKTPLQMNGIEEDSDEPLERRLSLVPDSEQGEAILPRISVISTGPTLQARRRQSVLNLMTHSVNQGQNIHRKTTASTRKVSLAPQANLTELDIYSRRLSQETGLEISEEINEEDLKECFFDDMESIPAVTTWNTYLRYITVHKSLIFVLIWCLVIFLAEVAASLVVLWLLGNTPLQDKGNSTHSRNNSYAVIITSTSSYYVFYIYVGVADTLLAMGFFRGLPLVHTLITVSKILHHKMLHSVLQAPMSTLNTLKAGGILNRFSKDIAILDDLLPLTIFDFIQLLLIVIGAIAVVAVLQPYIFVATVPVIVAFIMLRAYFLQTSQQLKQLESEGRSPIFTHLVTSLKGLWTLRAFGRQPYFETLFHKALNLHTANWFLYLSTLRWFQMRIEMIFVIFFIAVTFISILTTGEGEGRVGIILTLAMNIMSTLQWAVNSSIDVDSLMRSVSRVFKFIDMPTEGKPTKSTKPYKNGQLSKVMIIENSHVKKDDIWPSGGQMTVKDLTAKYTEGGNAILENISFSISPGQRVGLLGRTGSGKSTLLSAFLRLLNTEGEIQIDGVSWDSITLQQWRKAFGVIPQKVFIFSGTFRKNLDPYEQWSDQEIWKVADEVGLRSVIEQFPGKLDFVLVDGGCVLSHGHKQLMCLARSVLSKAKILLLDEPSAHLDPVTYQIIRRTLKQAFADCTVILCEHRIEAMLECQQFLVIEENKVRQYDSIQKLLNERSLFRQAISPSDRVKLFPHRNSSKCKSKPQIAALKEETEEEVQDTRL

COCC1CCN(c2cc(C(=O)NS(=O)(=O)c3cn[nH]c3)nc3c2c(C2CCC2)nn3-c2ccccc2)CC1 [Compound 253, 3-cyclobutyl-4-[4-(methoxymethyl)piperidin-1-yl]-1-phenyl-N-(1H-pyrazole-4-sulfonyl)-1H-pyrazolo[3,4-b]pyridine-6-carboxamide]
% Activation [1]: 174.6%
EC50 [1]: 676 nM
% Activation [2]: 454.4%
EC50 [2]: 251 nM

CC1(COc2cc(C(=O)NS(C)(=O)=O)nc3c2c(C2CCC2)nn3-c2ccccc2)COC1 [Compound 254, 3-cyclobutyl-N-(methanesulfonyl)-4-[(3-methyloxetan-3-yl)methoxy]-1-phenyl-1H-pyrazolo[3,4-b]pyridine-6-carboxamide]
% Activation [1]: 117.5%
EC50 [1]: 400 nM
% Activation [2]: 312.1%
EC50 [2]: 370 nM

COC1(CN2CCS(=O)(=O)CC2)CCN(c2cc(C(=O)NS(C)(=O)=O)nc3c2c(C2CCC2)nn3-c2ccccc2)CC1 [Compound 255, 3-cyclobutyl-4-{4-[(1,1-dioxo-1λ^6,4-thiazinan-4-yl)methyl]-4-methoxypiperidin-1-yl}-N-(methanesulfonyl)-1-phenyl-1H-pyrazolo[3,4-b]pyridine-6-carboxamide]
% Activation [1]: 122.3%
EC50 [1]: 1880 nM
% Activation [2]: 365.8%
EC50 [2]: 3330 nM

COCCS(=O)(=O)NC(=O)c1cc(N2CCC(COC)CC2)c2c(C3CCC3)nn(-c3ccccc3)c2n1 [Compound 256, 3-cyclobutyl-N-(2-methoxyethanesulfonyl)-4-[4-(methoxymethyl)piperidin-1-yl]-1-phenyl-1H-pyrazolo[3,4-b]pyridine-6-carboxamide]
% Activation [1]: 331.85%
% Activation [2]: 508.63%

CS(=O)(=O)NC(=O)c1cc(-c2ccc(N3CCC(C#N)CC3)nc2)c2c(n1)n(-c1ccccc1)nc2[C@H]1C[C@H](C)C1 [Compound 257, 4-[6-(4-cyanopiperidin-1-yl)pyridin-3-yl]-N-(methanesulfonyl)-3-(trans-3-methylcyclobutyl)-1-phenyl-1H-pyrazolo[3,4-b]pyridine-6-carboxamide]
% Activation [1]: 272.4%
EC50 [1]: 370 nM
% Activation [2]: 451.25%
EC50 [2]: 74.3 nM

CS(=O)(=O)NC(=O)c1cc(-c2ccc(N3CCC(C#N)CC3)nc2)c2c(OC3CCNCC3)nn(-c3ccccc3)c2n1 [Compound 258, 4-[6-(4-cyanopiperidin-1-yl)pyridin-3-yl]-N-(methanesulfonyl)-1-phenyl-3-[(piperidin-4-yl)oxy]-1H-pyrazolo[3,4-b]pyridine-6-carboxamide]
% Activation [1]: 8.829%
EC50 [1]: > 10000 nM
% Activation [2]: 127.1%
EC50 [2]: > 10000 nM

COCC1CCN(c2cc(C(=O)NS(=O)(=O)CCN3C(=O)c4ccccc4C3=O)nc3c2c(C2CCC2)nn3-c2ccccc2)CC1 [Compound 260, 3-cyclobutyl-N-[2-(1,3-dioxoisoindolin-2-yl)ethylsulfonyl]-4-[4-(methoxymethyl)-1-piperidyl]-1-phenyl-pyrazolo[3,4-b]pyridine-6-carboxamide]
% Activation [1]: 473.35%
EC50 [1]: 1870 nM
% Activation [2]: 664.07%
EC50 [2]: 130 nM

COCC1CCN(c2cc(C(=O)NS(=O)(=O)CCN)nc3c2c(C2CCC2)nn3-c2ccccc2)CC1 [Compound 261, N-(2-aminoethanesulfonyl)-3-cyclobutyl-4-[4-(methoxymethyl)piperidin-1-yl]-1-phenyl-1H-pyrazolo[3,4-b]pyridine-6-carboxamide]
% Activation [1]: 26.85%
EC50 [1]: > 10000 nM
% Activation [2]: 129.3%
EC50 [2]: > 10000 nM

COCC1CCN(c2cc(C(=O)NS(C)(=O)=O)nc3c2c(C(C)C)nn3CC2CCC2)CC1 [Compound 262, 1-(cyclobutylmethyl)-N-(methanesulfonyl)-4-[4-(methoxymethyl)piperidin-1-yl]-3-(propan-2-yl)-1H-pyrazolo[3,4-b]pyridine-6-carboxamide]
% Activation [1]: 232.07%
EC50 [1]: 598 nM
% Activation [2]: 420.17%
EC50 [2]: 523 nM

COCC1CCN(c2cc(C(=O)NS(C)(=O)=O)nc3c2c(C(C)C)nn3CC(C)C)CC1 [Compound 264, N-(methanesulfonyl)-4-[4-(methoxymethyl)piperidin-1-yl]-1-(2-methylpropyl)-3-(propan-2-yl)-1H-pyrazolo[3,4-b]pyridine-6-carboxamide]
% Activation [1]: 242.5%
EC50 [1]: 969 nM
% Activation [2]: 478.6%
EC50 [2]: 3330 nM

COCCS(=O)(=O)NC(=O)c1cc(N2CCC(COC)CC2)c2c(C(C)C)nn(CC(C)C)c2n1 [Compound 265, N-(2-methoxyethanesulfonyl)-4-[4-(methoxymethyl)piperidin-1-yl]-1-(2-methylpropyl)-3-(propan-2-yl)-1H-pyrazolo[3,4-b]pyridine-6-carboxamide]
% Activation [1]: 240.8%
EC50 [1]: 3330 nM
% Activation [2]: 427.8%
EC50 [2]: 2140 nM

CC(C)c1nn(-c2ccc(F)cc2)c2nc(C(=O)NS(C)(=O)=O)cc(N3CCN(CC(F)(F)F)CC3)c12 [Compound 266, 1-(4-fluorophenyl)-N-(methanesulfonyl)-3-(propan-2-yl)-4-[4-(2,2,2-trifluoroethyl)piperazin-1-yl]-1H-pyrazolo[3,4-b]pyridine-6-carboxamide]
% Activation [1]: 161.5%
EC50 [1]: 332 nM
% Activation [2]: 328.87%
EC50 [2]: 231 nM

COCC1CCN(c2cc(C(=O)NS(C)(=O)=O)nc3c2c(C(C)C)nn3-c2ccc(=O)n(C)n2)CC1 [Compound 268, N-(methanesulfonyl)-4-[4-(methoxymethyl)piperidin-1-yl]-1-(1-methyl-6-oxo-1,6-dihydropyridazin-3-yl)-3-(propan-2-yl)-1H-pyrazolo[3,4-b]pyridine-6-carboxamide]
% Activation [1]: 5.213%
EC50 [1]: > 10000 nM
% Activation [2]: 122.05%
EC50 [2]: > 10000 nM

COCCS(=O)(=O)NC(=O)c1cc(N2CCN(C(C)C)CC2)c2c(C3CCC3)nn(-c3ccccc3)c2n1 [Compound 271, 3-cyclobutyl-N-(2-methoxyethanesulfonyl)-1-phenyl-4-[4-(propan-2-yl)piperazin-1-yl]-1H-pyrazolo[3,4-b]pyridine-6-carboxamide]
% Activation [1]: 63.905%
EC50 [1]: 1950 nM
% Activation [2]: 260.47%
EC50 [2]: 1020 nM

COCCS(=O)(=O)NC(=O)c1cc(-c2ccc(N3CCC(C#N)CC3)nc2)c2c(OC3CCOC3)nn(-c3ccccc3)c2n1 (centres unmarked) [Compound 275, 4-[6-(4-cyanopiperidin-1-yl)pyridin-3-yl]-N-(2-methoxyethanesulfonyl)-3-[(oxolan-3-yl)oxy]-1-phenyl-1H-pyrazolo[3,4-b]pyridine-6-carboxamide]
% Activation [1]: 138.8%
EC50 [1]: 468 nM
% Activation [2]: 269.85%
EC50 [2]: 138 nM

COCCS(=O)(=O)NC(=O)c1cc(-c2ccc(N3CCC(C#N)CC3)nc2)c2c(n1)n(-c1ccccc1)nc2[C@H]1C[C@H](C)C1 [Compound 276, 4-[6-(4-cyanopiperidin-1-yl)pyridin-3-yl]-N-(2-methoxyethanesulfonyl)-3-(trans-3-methylcyclobutyl)-1-phenyl-1H-pyrazolo[3,4-b]pyridine-6-carboxamide]
% Activation [1]: 356.7%
EC50 [1]: 779 nM
% Activation [2]: 417.25%
EC50 [2]: 42.9 nM
